Measured values as given in publication PMC10178848, “Modulating fast skeletal muscle contraction protects skeletal muscle in animal models of Duchenne muscular dystrophy” (The Journal of Clinical Investigation, 2023).

System: GRMD plasma proteins
Type: in vivo, dog
Conditions: EDG-5506 treatment to GRMD baseline; Increased in GRMD

## O=c1ccc(-c2cnc(OCC(F)(F)F)nc2)nn1Cc1cncc(F)c1 [EDG-5506]
  Change from GRMD Baseline (fraction): Tyrosine-protein kinase Yes (YES1): -0.1382 fraction
  Change from GRMD Baseline (fraction): Tyrosine-protein kinase ZAP-70 (ZAP70): -0.1508 fraction
  Change from GRMD Baseline (fraction): Tyrosine-protein phosphatase non-receptor type 1 (PTPN1): -0.1492 fraction
  Change from GRMD Baseline (fraction): Tyrosine-protein phosphatase non-receptor type 11 (PTPN11): -0.1298 fraction
  Change from GRMD Baseline (fraction): UMP-CMP kinase (CMPK1): -0.0444 fraction
  Change from GRMD Baseline (fraction): Ubiquitin carboxyl-terminal hydrolase 25 (USP25): -0.1723 fraction
  Change from GRMD Baseline (fraction): Ubiquitin carboxyl-terminal hydrolase isozyme L1 (UCHL1): -0.1135 fraction
  Change from GRMD Baseline (fraction): Ubiquitin-fold modifier 1 (UFM1): -0.238 fraction
  Change from GRMD Baseline (fraction): Vascular cell adhesion protein 1 (VCAM1): -0.0642 fraction
  Change from GRMD Baseline (fraction): Vitamin K-dependent protein C (PROC): -0.2124 fraction
  Change from GRMD Baseline (fraction): Vitronectin (VTN): -0.1269 fraction
  Change from GRMD Baseline (fraction): cAMP-dependent protein kinase catalytic subunit alpha (PRKACA): -0.4297 fraction
  Change from GRMD Baseline (fraction): dCTP pyrophosphatase 1 (DCTPP1): -0.2045 fraction
  Chitotriosidase-1 (CHIT1): Change from GRMD Baseline (fraction): -0.0569 fraction
  Chorionic somatomammotropin hormone (CSH1 CSH2): Change from GRMD Baseline (fraction): -0.0697 fraction
  Chromobox protein homolog 5 (CBX5): Change from GRMD Baseline (fraction): -0.0792 fraction
  Coagulation Factor X (F10): Change from GRMD Baseline (fraction): 0.1015 fraction
  Coagulation factor IX (F9): Change from GRMD Baseline (fraction): 0.0746 fraction
  Complement component 1 Q subcomponent-binding protein, mitochondrial (C1QBP): Change from GRMD Baseline (fraction): -0.0848 fraction
  Connective tissue growth factor (CTGF): Change from GRMD Baseline (fraction): -0.0649 fraction
  Cyclin-dependent kinase 1:G2/mitotic-specific cyclin-B1 complex (CDC2 CCNB1): Change from GRMD Baseline (fraction): -0.037 fraction
  Cyclin-dependent kinase 5:Cyclin-dependent kinase 5 activator 1 complex (CDK5 CDK5R1): Change from GRMD Baseline (fraction): -0.0717 fraction
  Cytokine receptor-like factor 1:Cardiotrophin-like cytokine factor 1 Complex (CRLF1 CLCF1): Change from GRMD Baseline (fraction): 0.1068 fraction
  Dual 3',5'-cyclic-AMP and -GMP phosphodiesterase 11A (PDE11A): Change from GRMD Baseline (fraction): 0.0578 fraction
  Ectodysplasin-A, secreted form (EDA): Change from GRMD Baseline (fraction): -0.0132 fraction
  Endothelial cell-selective adhesion molecule (ESAM): Change from GRMD Baseline (fraction): 0.0149 fraction
  Endothelial monocyte-activating polypeptide 2 (AIMP1): Change from GRMD Baseline (fraction): -0.1718 fraction
  Extracellular superoxide dismutase [Cu-Zn] (SOD3): Change from GRMD Baseline (fraction): -0.0256 fraction
  Ficolin-2 (FCN2): Change from GRMD Baseline (fraction): -0.1165 fraction
  Fms-related tyrosine kinase 3 ligand (FLT3LG): Change from GRMD Baseline (fraction): -0.0844 fraction
  Galactoside 3(4)-L-fucosyltransferase (FUT3): Change from GRMD Baseline (fraction): 0.0031 fraction
  Galectin-10 (CLC): Change from GRMD Baseline (fraction): 0.0351 fraction
  Glial fibrillary acidic protein (GFAP): Change from GRMD Baseline (fraction): -0.0103 fraction
  Glycylpeptide N-tetradecanoyltransferase 1 (NMT1): Change from GRMD Baseline (fraction): -0.1333 fraction
  Group 10 secretory phospholipase A2 (PLA2G10): Change from GRMD Baseline (fraction): 0.0049 fraction
  Growth hormone receptor (GHR): Change from GRMD Baseline (fraction): -0.0293 fraction
  Growth-regulated alpha protein (CXCL1): Change from GRMD Baseline (fraction): -0.0678 fraction
  Growth/differentiation factor 15 (GDF15): Change from GRMD Baseline (fraction): -0.0948 fraction
  Hepatocyte growth factor (HGF): Change from GRMD Baseline (fraction): -0.0495 fraction
  Hepcidin (HAMP): Change from GRMD Baseline (fraction): -0.0269 fraction
  Immunoglobulin M (IGHM IGJ IGK@ IGL@): Change from GRMD Baseline (fraction): -0.1429 fraction
  Importin subunit alpha-1 (KPNA2): Change from GRMD Baseline (fraction): -0.0896 fraction
  Induced myeloid leukemia cell differentiation protein Mcl-1 (MCL1): Change from GRMD Baseline (fraction): -0.0522 fraction
  Inorganic pyrophosphatase (PPA1): Change from GRMD Baseline (fraction): -0.2863 fraction
  Insulin-like growth factor-binding protein 7 (IGFBP7): Change from GRMD Baseline (fraction): -0.0264 fraction
  Integrin alpha-IIb: beta-3 complex (ITGA2B ITGB3): Change from GRMD Baseline (fraction): -0.0613 fraction
  Interleukin-4 (IL4): Change from GRMD Baseline (fraction): -0.0475 fraction
  Interleukin-6 receptor subunit beta (IL6ST): Change from GRMD Baseline (fraction): 0.0395 fraction
  Interleukin-8 (CXCL8): Change from GRMD Baseline (fraction): -0.0542 fraction
  Interleukin-10 receptor subunit beta (IL10RB): Change from GRMD Baseline (fraction): -0.0725 fraction
  Interleukin-17 receptor C (IL17RC): Change from GRMD Baseline (fraction): -0.0346 fraction
  Interleukin-18 receptor accessory protein (IL18RAP): Change from GRMD Baseline (fraction): -0.0372 fraction
  Interleukin-27 (IL27 EBI3): Change from GRMD Baseline (fraction): -0.0259 fraction
  Interleukin-36 beta (IL36B): Change from GRMD Baseline (fraction): -0.0479 fraction
  Killer cell immunoglobulin-like receptor 3DS1 (KIR3DS1): Change from GRMD Baseline (fraction): 0.0065 fraction
  Killer cell lectin-like receptor subfamily F member 1 (KLRF1): Change from GRMD Baseline (fraction): -0.0162 fraction
  Lamin-B1 (LMNB1): Change from GRMD Baseline (fraction): 0.0054 fraction
  Laminin (LAMA1 LAMB1 LAMC1): Change from GRMD Baseline (fraction): -0.1316 fraction
  Low-density lipoprotein receptor-related protein 1B (LRP1B): Change from GRMD Baseline (fraction): -0.0892 fraction
